Results: PMC8048639 (2021)
One block for each compound: values may come before it.

Experiments:
[1] = system: poly(rG) (RNA, polymer) G; assay: fluorimetric titration, Scatchard fit; settings: Na+ (sodium cacodylate buffer, I=0.05 M), pH 7.0, n fixed, per base
[2] = system: poly(dAdT)2 (DNA, polymer) AT; assay: UV thermal melting at 260 nm; settings: Na+ (sodium cacodylate buffer, I=0.05 M); pH 7.0; r=[compound]/[polynucleotide]=0.1; per base
[3] = system: poly(rA)-poly(rU) (RNA, polymer) A/U; assay: fluorimetric titration, Scatchard fit; settings: Na+ (sodium cacodylate buffer, I=0.05 M), pH 7.0, per base
[4] = system: poly(rU) (RNA, polymer) U; assay: fluorimetric titration, Scatchard fit; settings: Na+ (sodium cacodylate buffer, I=0.05 M), pH 7.0, n fixed, per base
[5] = system: poly(dGdC)2 (DNA, polymer) GC; assay: fluorimetric titration, Scatchard fit; settings: Na+ (sodium cacodylate buffer, I=0.05 M), pH 7.0, n fixed, per base
[6] = system: poly(rA) (RNA, polymer) A; assay: fluorimetric titration, Scatchard fit; settings: Na+ (sodium cacodylate buffer, I=0.05 M), pH 7.0, n fixed, per base
[7] = system: poly(dT) (DNA, polymer) T; assay: fluorimetric titration, Scatchard fit; settings: Na+ (sodium cacodylate buffer, I=0.05 M), pH 7.0, n fixed, per base
[8] = system: poly(rA)-poly(rU) (RNA, polymer) A/U; assay: UV thermal melting at 260 nm; settings: Na+ (sodium cacodylate buffer, I=0.05 M); pH 7.0; r=[compound]/[polynucleotide]=0.1; per base
[9] = system: poly(dAdT)2 (DNA, polymer) AT; assay: fluorimetric titration, Scatchard fit; settings: Na+ (sodium cacodylate buffer, I=0.05 M), pH 7.0, n fixed, per base
[10] = system: poly(rC) (RNA, polymer) C; assay: fluorimetric titration, Scatchard fit; settings: Na+ (sodium cacodylate buffer, I=0.05 M), pH 7.0, n fixed, per base
[11] = system: poly(dA) (DNA, polymer) A; assay: fluorimetric titration, Scatchard fit; settings: Na+ (sodium cacodylate buffer, I=0.05 M); pH 7.0; compound 5×10^-8 M; n fixed; per base
[12] = compound 5×10^-8 M, aggregation at excess dye
[13] = compound 5×10^-8 M, apparent, lowered by competing aggregation

log K S [1]: 8.7
ΔT m [2]: 6 ± 0.5 °C
log K S ([3]; compound 1×10^-8 M, limit only): > 9
log K S [4]: 8.8
log K S ([5]; compound 1×10^-8 M): 7.9
log K S [6]: 7.8
log K S [7]: 7.4
ΔT m [8]: 8 ± 0.5 °C
log K S ([9]; compound 1×10^-8 M, aggregation at excess dye): 7.7
Structure (SMILES): Cc1cc(C#Cc2c3ccccc3c(C#Cc3cc(C)c(B(c4c(C)cc([N+](C)(C)C)cc4C)c4c(C)cc([N+](C)(C)C)cc4C)c(C)c3)c3ccccc23)cc(C)c1B(c1c(C)cc([N+](C)(C)C)cc1C)c1c(C)cc([N+](C)(C)C)cc1C

log K S [1, 12]: 7.1
ΔT m [2]: 3 ± 0.5 °C
log K S ([3]; compound 5×10^-8 M, apparent, lowered by competing aggregation, n fixed): 6.0
log K S [10, 12]: 7.4
log K S ([4]; compound 5×10^-8 M): 7.0
log K S [5, 13]: 6.6
log K S [11]: 7.6
log K S ([7]; compound 5×10^-8 M): 7.6
ΔT m [8]: 7 ± 0.5 °C
log K S [9, 13]: 5.1
Structure (SMILES): Cc1cc(C#Cc2ccc(-c3ccc(C#Cc4cc(C)c(B(c5c(C)cc([N+](C)(C)C)cc5C)c5c(C)cc([N+](C)(C)C)cc5C)c(C)c4)s3)s2)cc(C)c1B(c1c(C)cc([N+](C)(C)C)cc1C)c1c(C)cc([N+](C)(C)C)cc1C

log K S [1]: 8.7
log K S ([3]; n fixed): 8.6
log K S [10]: 7.1
log K S [4]: 7.4
log K S [5]: 8.4
log K S [6]: 8.4
log K S [7]: 8.5
ΔT m [8]: 9 ± 0.5 °C
log K S ([9]; compound 5×10^-9 M): 7.8
Structure (SMILES): Cc1cc(C#Cc2ccc(C#Cc3cc(C)c(B(c4c(C)cc([N+](C)(C)C)cc4C)c4c(C)cc([N+](C)(C)C)cc4C)c(C)c3)cc2)cc(C)c1B(c1c(C)cc([N+](C)(C)C)cc1C)c1c(C)cc([N+](C)(C)C)cc1C

log K S ([1]; compound 5×10^-8 M): 7.3
log K S ([3]; compound 5×10^-8 M, n fixed): 7.9
log K S ([10]; compound 5×10^-8 M): 7.2
log K S ([4]; compound 5×10^-8 M): 7.1
log K S ([5]; compound 5×10^-8 M): 7.8
log K S ([6]; compound 5×10^-8 M): 7.1
ΔT m [8]: 0 ± 0.5 °C
log K S ([9]; compound 5×10^-8 M): 7.4
Structure (SMILES): Cc1cc([N+](C)(C)C)cc(C)c1B(c1c(C)cc([N+](C)(C)C)cc1C)c1c2ccccc2c(B(c2c(C)cc([N+](C)(C)C)cc2C)c2c(C)cc([N+](C)(C)C)cc2C)c2ccccc12
